Tests used:
[1] = test system: E-selectin (ELAM) gene expression; assay: Rabbit atherogenic diet model, E-selectin mRNA in aorta bow (RNase protection)
ERα and c-Rel = assay: NF-κB-responsive reporters in COS cells transfected with ERα and c-Rel; assay type: cell-based, human; conditions: COS cells (B), ERα + cRel transfected
Source text: This example describes an assay, based on the E-selectin or VCAM promoter in combination with ERα in the T24/ECV cell line. Note that for the ER/NF-κB transrepression assay the ECV304 cell line was used, which was believed to be the only endothelial cell line available that was suitable for producing stable ERα expressing clones. At a later stage ATCC reported that the ECV304 cells were no endothelial cells but, instead, were T24 bladder carcinoma cells. In order to enhance the cytokine induction and amount of repression by estrogens, multiple copies of NF-κB responsive regions of the E-Selectin and VCAM promoters were used to construct new reporters named ELAM1a, ELAM2, ELAM-HMG, VCAM1-2, VCAM2, and VCAM3 (for reporter details see appendix 1).
ECV304-ERα cells stably express ERα and endogenous c-Rel, whereas COS cells were transiently transfected with ERα, and, where indicated, c-Rel. Both cell types were co-transfected with the indicated E-selectin (ELAM) or VCAM promoter derived reporters.
Human osteosarcoma U-2 OS (HTB-96), monkey kidney COS-1 (CRL-1650) and human ECV304 (CRL-1998) cells have been obtained from ATCC (American Type Culture collection). ECV304 cells were sold by ATCC as human endothelial cells, however at a later stage ATCC informed us that this cell line was in fact the human bladder epithelial carcinoma cell line T24. Therefore, these cells are called T24/ECV in this report. ECV304/T24(-ERα), U-2 OS and COS-7 cells were grown in a 1:1 mixture of phenol red free Dulbecco's modified medium (DMEM) and Ham's F12 medium (=M505), supplemented with 10% fetal calf serum (FCS). Experiments were performed in M505+10% FCTS (fetal calf serum treated with dextran-coated charcoal to deplete serum from steroid activity).
The six NF-κB responsive reporters pHGL3-ELAM 1a, pHGL3-ELAM 2, pHGL3-ELAM HMG, pHGL3-VCAM 1-2, pHGL3-VCAM 2 and pHGL3-VCAM 3 (plasmid nr. 1921-1926 respectively) were constructed by ligating annealed primers in the Kpn I and Sac I sites of pHGL3-TATA. The primers were based on the NF-κB-RE sequences in the ELAM and the VCAM promoter (see Appendix 1). Several copies of the NF-κB-RE's were cloned in order the gain a higher absolute luciferase signal. The ELAM HMG construct contains a double repeat, while the other constructs contain three NF-κB -RE's. For primer and reporter sequences, see appendix 1.
For transient transfections, cells were seeded in 6-well plates (2.10^5 cells/well). After two or three days the cells were transfected with reporter, expression vectors and β-galactosidase control vector. Two different experimental settings were used. For testing transrepression of IL-1β induced promoter activity, cells were transfected with 1 μg reporter construct, 1 μg expression vector (containing either ERα, ERβ or GR), and 0.25 μg of β-galactosidase control plasmid. For testing transrepression in combination with c-Rel or ReLA overexpression, cells were transfected with 1 μg reporter construct, 1 μg expression vector (containing either ERα, ERβ or GR) and 0.1 or 1.0 μg expression vector containing c-Rel or RelA and 0.25 μg of β-galactosidase control vector. Equivalent amounts of DNA were obtained by adding the appropriate expression vector that lacks an insert. Transient transfection was performed using lipofectin reagent (Life Technologies). […] The transfected cells were incubated overnight with test compounds prior to cell lysis. Measurement of luciferase and P-galactosidase activity were performed using respectively the luciferase assay system (Promega) and Galacto-light plus (Tropix) according to the manufacturers' protocols and measured on the Victor 1420 multilabel counter, Wallac.

## C[C@]12CC[C@@H]3c4ccc(O)cc4CC[C@H]3[C@@H]1CC[C@@H]2O [Org E2, 17β-estradiol]
[1]; diet 2 weeks, 4 hours after 3 μg/kg s.c.
  ELAM mRNA level (RNase protection, divided by GAPDH signal): 0
[1]; diet 2 weeks, 12 hours after 3 μg/kg s.c.
  ELAM mRNA level (RNase protection, divided by GAPDH signal): 0.0003897
[1]; diet 4 weeks, 12 hours after 3 μg/kg s.c.
  ELAM mRNA level (RNase protection, divided by GAPDH signal): 0
[1]; diet 8 weeks, 4 hours after 3 μg/kg s.c.
  ELAM mRNA level (RNase protection, divided by GAPDH signal): 0.0006813
[1]; diet 18 weeks, 4 hours after 3 μg/kg s.c.
  ELAM mRNA level (RNase protection, divided by GAPDH signal): 0.002788
[1]; diet 18 weeks, 12 hours after 3 μg/kg s.c.
  ELAM mRNA level (RNase protection, divided by GAPDH signal): 0.0008307
ERα and c-Rel
  luciferase activity, ELAM1a reporter: 7390 cps
  luciferase activity, ELAM2 reporter: 6223 cps
  luciferase activity, ELAM-HMG reporter: 61571 cps
  luciferase activity, ELAM− reporter: 90035 cps
  luciferase activity, VCAM1-2 reporter: 9107 cps
  luciferase activity, VCAM2 reporter: 4783 cps
  luciferase activity, VCAM3 reporter: 10781 cps
  luciferase activity, VCAM reporter: 51283 cps
